Test results published in ChEMBL document CHEMBL5247653, “Discovery of Clinical Candidate ACT-777991, a Potent CXCR3 Antagonist for Antigen-Driven and Inflammatory Pathologies” (J Med Chem, 2023).
≈ marks a conversion by molar mass, not a printed value. Calls of active or inactive are those of the source. The rule behind the calls is not given here.

Key:
[1] = biological target: T1, C-X-C chemokine receptor type 3 (Homo sapiens, UniProt P49682); experiment: Antagonist activity at CXCR3 (unknown origin) in human T cells in venous blood assessed as receptor internalization incubated for 30 mins in presence of CXCL10 by flow cytometric analysis; format: cell-based, T cell
T1 sequence (P49682 whole entry): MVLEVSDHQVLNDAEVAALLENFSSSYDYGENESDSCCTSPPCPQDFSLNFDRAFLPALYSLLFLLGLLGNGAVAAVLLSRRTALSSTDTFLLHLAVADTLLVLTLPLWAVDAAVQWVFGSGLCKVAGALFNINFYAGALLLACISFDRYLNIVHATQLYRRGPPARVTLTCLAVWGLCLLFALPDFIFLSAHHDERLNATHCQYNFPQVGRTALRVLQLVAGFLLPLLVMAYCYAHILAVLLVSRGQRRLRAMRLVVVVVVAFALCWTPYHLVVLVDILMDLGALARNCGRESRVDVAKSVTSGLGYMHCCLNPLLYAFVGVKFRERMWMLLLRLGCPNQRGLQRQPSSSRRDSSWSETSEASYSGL

[2] = Metabolic stability in human liver microsomes assessed as intrinsic clearance at 1 uM and measured upto 15 mins in presence of NADPH regenerating system by LC-MS/MS analysis; format: ADME, Microsome; details: read-out: CLH
[3] = Protein binding in human plasma assessed as fraction unbound at 1 uM incubated for 6 hrs by rapid equilibrium dialysis based LC-MS/MS analysis; format: ADME, cell-free
[4] = Metabolic stability in dog liver microsomes assessed as intrinsic clearance at 1 uM and measured upto 15 mins in presence of NADPH regenerating system by LC-MS/MS analysis; format: ADME, Canis lupus familiaris, Microsome; details: read-out: CLH
[5] = Unbound clearance in Beagle dog plasma at 1 mg/kg, iv; format: ADME, organism-based, Canis lupus familiaris; details: in vivo
[6] = biological target: T1, C-X-C chemokine receptor type 3; experiment: Antagonist activity at human CXCR3 expressed in CHO-K1 cells assessed as reduction in CXCL9 induced calcium flux by FLIPR method; format: cell-based
[7] = biological target: T2, C-X-C chemokine receptor type 3 (Mus musculus, UniProt O88410); experiment: Antagonist activity at mouse CXCR3 expressed in CHO-K1 cells assessed as reduction in CXCL11 induced calcium flux by FLIPR method; format: cell-based
T2 sequence (O88410 whole entry): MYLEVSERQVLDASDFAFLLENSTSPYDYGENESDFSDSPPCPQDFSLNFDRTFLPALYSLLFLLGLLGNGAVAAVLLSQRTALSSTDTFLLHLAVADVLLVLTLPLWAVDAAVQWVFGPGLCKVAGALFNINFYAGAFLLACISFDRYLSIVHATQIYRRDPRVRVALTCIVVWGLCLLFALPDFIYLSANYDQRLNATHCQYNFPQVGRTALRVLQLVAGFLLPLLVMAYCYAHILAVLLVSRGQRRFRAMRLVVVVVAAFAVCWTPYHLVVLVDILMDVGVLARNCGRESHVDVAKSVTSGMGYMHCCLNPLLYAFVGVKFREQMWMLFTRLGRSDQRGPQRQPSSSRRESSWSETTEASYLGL

[8] = biological target: C-X-C chemokine receptor type 3 (Canis lupus familiaris, UniProt Q5KSK8); experiment: Antagonist activity at dog CXCR3 expressed in CHO-K1 cells assessed as reduction in CXCL10 induced calcium flux by FLIPR method; format: cell-based
[9] = biological target: T3, C-X-C chemokine receptor type 3 (Homo sapiens) (UniProt P49682); experiment: Binding affinity to CXCR3 (unknown origin) at 10 uM by radioligand binding assay; details: filed as antagonist
T3 sequence (whole entry): T1 sequence (P49682 whole entry)

Mus musculus [10] = experiment: Antiinflammatory activity against LPS-induced DBA/1 mouse model assessed as reduction in CXCR3+ CD8+ T cells infiltration into BAL at 0.006 to 2 microg/g, po bid preincubated for 3 days followed by LPS stimulation for 30 mins and measured after 3 days by flow cytometry; format: functional, organism-based; details: T-cell, dose 0.006-2 µg/g, time 6.0 day
Mus musculus [11] = experiment: Antiinflammatory activity against LPS-induced DBA/1 mouse model assessed as reduction in CXCR3+ CD8+ T cells infiltration into BAL at 0.02 microg/g, po preincubated for 3 days followed by LPS stimulation for 30 mins and measured after 3 days by flow cytometry; format: functional, T-cell; parameters: scale not given: the % may be the effect or the level left; details: dose 0.02 µg/g, time 6 day
[12] = biological target: T4, C-X-C chemokine receptor type 3 (Mus musculus) (UniProt O88410); experiment: In vivo antagonist activity at CXCR3 in LPS-induced DBA/1 mouse model assessed as reduction in mouse CXCL10-mediated chemotaxis in CD8+ T cells at 0.02 microg/g, po bid preincubated for 3 days followed by LPS stimulation for 30 mins and measured after 3 days by flow cytometry; format: functional, organism-based; parameters: scale not given: the % may be the effect or the level left; details: T-cell, dose 0.02 µg/g, time 6.0 day
T4 sequence (whole entry): T2 sequence (O88410 whole entry)

[13] = Cmin in LPS-induced DBA/1 mouse plasma at 0.06 microg/g, po bid preincubated for 3 days followed by LPS stimulation for 30 mins and measured after 72 hrs by flow cytometry; format: ADME, organism-based; details: dose 0.06 µg/g, time 6 day, read-out: Cmin
[14] = Solubility of compound in FeSSIF at 37 degreeC; format: ADME
[15] = Glutathione reactivity assessed as GSH-adduct formation by dansyl-glutathione trapping assay; format: physicochemical
[16] = Metabolic stability in rat liver microsomes assessed as M3 metabolite formation at 1 uM and measured upto 15 mins in presence of NADPH regenerating system by LC-MS/MS analysis; format: ADME, Microsome; details: 0.25 h
[17] = Metabolic stability in dog liver microsomes assessed as M3 metabolite formation at 1 uM and measured upto 15 mins in presence of NADPH regenerating system by LC-MS/MS analysis; format: ADME, Canis lupus familiaris, Microsome; details: 0.25 h
[18] = Metabolic stability in rat hepatocyte assessed as M4 metabolite formation at 1 uM and measured upto 15 mins in presence of NADPH regenerating system by LC-MS/MS analysis; format: ADME, cell-based; details: hepatocytes, 0.25 h
[19] = Metabolic stability in dog hepatocyte assessed as M3 metabolite formation at 1 uM and measured upto 15 mins in presence of NADPH regenerating system by LC-MS/MS analysis; format: ADME, cell-based, Canis lupus familiaris; details: hepatocytes, 0.25 h
[20] = Metabolic stability in dog hepatocyte assessed as M4 metabolite formation at 1 uM and measured upto 15 mins in presence of NADPH regenerating system by LC-MS/MS analysis; format: ADME, cell-based, Canis lupus familiaris; details: hepatocytes, 0.25 h
[21] = Protein binding in human plasma assessed as fraction unbound at 20 ug/ml using 14C-labeled ligand by rapid equilibrium dialysis; format: ADME, cell-free; details: at 20 µg/mL
[22] = Protein binding in mouse plasma assessed as fraction unbound at 20 ug/ml using 14C-labeled ligand by rapid equilibrium dialysis; format: ADME, cell-free; details: at 20 µg/mL
[23] = Tmax in Wistar rat at 3 mg/kg,iv or 3 mg/kg, po; format: ADME, organism-based; details: in vivo
[24] = AUC (0 to last) in Beagle dog at 2.5 mg/kg,iv or 2.5 mg/kg, po; format: ADME, organism-based, Canis lupus familiaris; parameters: dose 2.5 mg/kg, route iv; details: in vivo
[25] = Clearance in Beagle dog at 2.5 mg/kg,iv or 2.5 mg/kg, po; format: ADME, organism-based, Canis lupus familiaris; details: in vivo
[26] = Cmax in Cynomolgus monkey at 1.0 mg/kg,iv or 1.25 mg/kg, po; format: ADME, organism-based, Macaca fascicularis; parameters: dose 1 mg/kg, route iv; details: in vivo
[27] = Half life in Cynomolgus monkey at 1.0 mg/kg,iv or 1.25 mg/kg, po; format: ADME, organism-based, Macaca fascicularis; details: in vivo
[28] = In vivo inhibition of hERG in iv dosed dog assessed as change in PR interval; format: toxicity, organism-based, Canis lupus familiaris
[29] = Genotoxicity in Salmonella typhimurium TA98 at 5000 ug in presence of S9 fraction; format: toxicity, subcellular, Salmonella enterica subsp. enterica serovar Typhimurium; details: dose 5000 µg

C-X-C chemokine receptor type 3 (Canis lupus familiaris, UniProt Q5KSK8), sequence (Q5KSK8 whole entry): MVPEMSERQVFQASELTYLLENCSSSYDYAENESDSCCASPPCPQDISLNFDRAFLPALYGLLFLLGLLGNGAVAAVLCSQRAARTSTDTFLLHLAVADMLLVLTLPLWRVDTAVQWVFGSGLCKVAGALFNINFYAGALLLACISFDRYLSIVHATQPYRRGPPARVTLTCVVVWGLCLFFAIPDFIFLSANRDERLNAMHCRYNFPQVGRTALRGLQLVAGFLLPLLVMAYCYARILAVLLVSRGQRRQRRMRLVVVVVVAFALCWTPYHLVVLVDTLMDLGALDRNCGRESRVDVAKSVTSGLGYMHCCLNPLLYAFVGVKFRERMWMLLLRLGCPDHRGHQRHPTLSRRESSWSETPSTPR

For Cc1ncn(CC(=O)N2CCN(c3sc(C(F)(F)F)nc3-c3cnc(C(F)(F)F)nc3)C[C@H]2CCO)n1, the IC50 [1] was 56.3 nM, the microsomal CLint at 1 µM [2] was < 10 µL/min/mg and the fraction unbound at 6 h, 1 µM [3] was 0.23. The microsomal CLint at 1 µM [4] was < 10 µL/min/mg, the CL free [5] was 15 mL/min/kg and the IC50 [6] was 3.3 nM. The IC50 [7] was 4.4 nM, the IC50 [8] was 2.8 nM and the Activity [9] was “Active”. For the same compound, the Activity (Mus musculus [10]) was “Dose-Dependent Effect”, the Activity (Mus musculus [11]) was 70% and the Activity [12] was 45%. The concentration at 72 h [13] was 267 ng/mL, the solubility [14] was 1250 µg/mL (≈ 2270 µM) and the Activity [15] was “Not Active”. The Stability [16] was “Unstable”, the Stability [17] was “Unstable” and the Stability [18] was “Unstable”. The Stability [19] was “Unstable”, the Stability [20] was “Unstable” and the fraction unbound at 20 ug/ml [21] was 0.4. The fraction unbound at 20 ug/ml [22] was 0.1, the Tmax [23] was 30 min and the AUC(0-t) [24] was 3910 ng·h/mL. For the same compound, the clearance [25] was 9.5 mL/min/kg, the Cmax [26] was 735 ng/mL and the half-life [27] was 240 min. For the same compound, the “inhibition (INH)” value [28] was “Non-Toxic” and the Activity [29] was “Non-Toxic”.
